Results taken from patent US11154569B2, “Ruthenium μ-nitrido complexes and their use as calcium uptake inhibitors” (CORNELL UNIVERSITY, priority 2018, dated 2021).

Key:
[1] = target: T1, mitochondrial calcium uniporter (MCU) (Homo sapiens, UniProt Q8NE86); experiment: MCU-mediated Ca2+ uptake and ΔΨm in permeabilized HEK293T cells; assay type: cell-based; parameters: endogenous in cells; host or cells: HEK293T (digitonin-permeabilized); conditions: 5 μM compound, 20 μM Ca2+ bolus
T1 sequence (Q8NE86 51-351): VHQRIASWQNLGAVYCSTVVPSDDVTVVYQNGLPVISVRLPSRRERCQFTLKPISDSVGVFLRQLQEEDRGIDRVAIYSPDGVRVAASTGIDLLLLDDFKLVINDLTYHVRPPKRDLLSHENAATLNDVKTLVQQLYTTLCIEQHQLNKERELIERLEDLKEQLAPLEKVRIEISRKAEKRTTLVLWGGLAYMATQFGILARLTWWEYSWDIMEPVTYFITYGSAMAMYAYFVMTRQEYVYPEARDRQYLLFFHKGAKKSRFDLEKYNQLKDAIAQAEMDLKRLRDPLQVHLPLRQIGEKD
T1 sequence (Q9H4I9 48-107 partner limits assumed): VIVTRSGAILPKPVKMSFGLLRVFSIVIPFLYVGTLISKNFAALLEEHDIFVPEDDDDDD
Experimental: An equal number of IHEK293T (6×10^6 cells) were washed in Ca^2+ free PBS, pH 7.4, resuspended and permeabilized with 40 μg/ml digitonin in 1.5 ml of intracellular medium (ICM) composed of 120 mM KCl, 10 mM NaCl, 1 mM K—H2PO4, 20 mM HE PES-Tris, pH 7.2 and 2 μM thapsigargin to block the SERCA pump. All measurements were performed in the presence of 2 mM succinate. The permeabilized cells were loaded with JC-1 (800 nM) and Fura2-FF (0.5 μM), respectively. Fluorescence was monitored in a multi-wavelength excitation dual-wavelength emission fluorimeter. [Ca^2+]out is represented as the excitation ratio (340 nm/380 nm) of Fura2-FF/FA fluorescence and ΔΨm as the ratio of the fluorescence of J-aggregate (570 nm excitation/595 nm emission) and monomer (490 nm excitation/535 nm emission) forms of JC-1. A series of extra-mitochondrial Ca^2+ bolus (20 μM) was added and mitochondrial uncoupler, CCCP (2 jμM), were added at the indicated time points. All of the experiments were performed at 37° C. with constant stirring.
With the new nitrido-bridged ruthenium compounds C-2 and C-3 prepared, MCU-inhibitory properties of these compounds were evaluated and their activities compared to C-1, the oxo-bridged Ru360 analogue of the conventional art (S. R. Nathan et al., Inorg. Chem. 2017, 56, 3123-3126 and S. R. Nathan et al., J. Vis. Exp. 2017, 56527). The cytotoxicity of the complexes in HEK293 cells was first measured using the colorimetric thiazolyl blue tetrazolium bromide (MTT) assay, as well known in the art. […] To measure the effect of these compounds on MCU activity, permeabilized HEK293T cells were treated with commercially available Ru360, C-1, C-2, or C-3 (5 jμM) 200 seconds prior to the delivery of a 20 μM bolus of Ca^2+ in the presence of 2 mM succinate as an energy source and the sarco/endoplasmic reticulum Ca^2+-ATPase (SERCA) pump blocker thapsigargin to prevent ER Ca^2+ uptake (S. Shanmughapriya et al., Sci. Signal. 2015, 8, ra23).
FIGS. 2A-2C are graphs showing changes in mitochondrial membrane potential (ΔΨm, JC-1, top panel) and extramitochondrial Ca^2+([Ca^2+]out) clearance (Fura-2 FF, bottom panel) in digitonin permeabilized HEK293T cells in response to 20 μM of Ca^2+ after treatment with 5 μM of C-1 (FIG. 2A), C-2 (FIG. 2B), and C-3 (FIG. 2C). The transient drop in ΔΨm in control cells upon Ca^2+ addition indicates accumulation of Ca^2+ in the mitochondrial matrix. FIG. 2D is a graph quantifying the rate of [Ca^2+] uptake as a function of decrease in [Ca^2+]out after a […] Ca^2+ pulse. […] Additionally, ΔΨm was monitored using 5,5′,6,6′-tetrachloro-1,1′,3,3′-tetraethylbenzimidazolylcarbocyanine iodide (JC-1) dye (M. Reen et al., Biochemistry 1991, 30, 4480-4486).
Having identified (C-2 as a cell-permeable MCU inhibitor, a dose-response analysis was performed to determine the potency of C-2 towards mCa^2+ uptake inhibition of C-2 in a permeabilized cell system. Permeabilized IHEK293T cells were treated with C-2 (1 nM to 1 μM). A 20 μM Ca^2+ bolus was added after baseline recording, and the extra-mitochondrial calcium cleared was used as an indicator for MCU-mediated mCa^2+ uptake using Fura-2FF. The results are shown in FIGS. 4A-4C. FIG. 4A includes representative traces of [Ca^2+]out clearance in permeabilized HEK293T cells challenged with a range of C-2 concentrations (1, 2, 3, 5, and 10 nM). FIG. 4B is a graph comparing MCU-inhibitory effect by Ru360 (30 nM) and C-2 (2 and 10 nM) at lower concentrations. FIG. 4C is a graph showing calculation of dose-dependent IC50 inhibition by C-2 and Ru360. Data represent mean±SEM (n=3-6), n.s.=not significant. […] Furthermore, complete inhibition of mCa^2+ uptake was observed when cells were dosed with 10 nM C-2 while 500 nM of Ru360 was required for the same response (FIGS. 4A and 4B).

[2] = target: T1, mitochondrial calcium uniporter (MCU); experiment: Cytoplasmic and mitochondrial Ca2+ dynamics in intact HeLa cells after histamine; assay type: cell-based; parameters: 30 min) and Rhod-2 AM; endogenous in cells; host or cells: HeLa (intact; some experiments with transfected Ca2+ sensors R-GECO1 and GCamP6-mt, MCU itself not transfected); conditions: intact HeLa cells, 50 μM for 30 minutes, histamine 100 μM; Rhod-2 AM and GCamP6-mt
Experimental: HeLa cells were loaded with Fluo-4-AM (5 μM; 30 min) and Rhod-2 AM (2 μM; 50 min) in extracellular medium as previously described (F. Perocchi et al, Nature 2010, 467, 291-296). Coverslips were mounted in an open perfusion microincubator at 37° C. and imaged. After 1 minute of baseline recording, histamine (100 μM) was added, and confocal images were recorded every 3 seconds at 488 and 561 nm excitation using a 40× oil objective. Images were analyzed and quantified by using ImageJ (NIH).
HeLa cells were transiently transfected with genetically encoded cytosolic and mitochondrial targeted Ca^2+ sensors R-GECO1 and GCamP6-mt plasmids. After 48 hours, the transfected cells were treated with MCU inhibitors (C1, C-2, and C-3; 50 μM). After 1 minute of baseline recording, histamine (100 μM) was added, and the change of R-GECO1 and GCamP6-mt fluorescence was measured with 488-nm and 561-nm excitation on a confocal microscope equipped with a 40× oil objective. Images were analyzed and quantified by using ImageJ (NIH).
Encouraged by the high cell permeability and mitochondrial selectivity of C-2, the capability of this complex to inhibit MCU-mediated mCa^2+ uptake in intact, non-permeabilized cells was investigated Briefly, HeLa cells were loaded with the cytosolic calcium concentration ([Ca^2+]) indicator Fluo-4 AM and the mitochondrial calcium concentration ([…]) indicator Rhod-2 AM in the presence or absence of C-1, C-2, and C-3 (50 μM). Cells were stimulated with the GPCR agonist histamine (100 μM) to rapidly elevate cCa^2+ levels to induce mCa^2+ uptake (Z. Dong et al., Mol. Cell 2017, 65, 1014-1028).
FIGS. 3A and 3B are graphs showing results of cytosolic ([Ca^2+]e, Fluo-4 AM) and mitochondrial ([Ca^2+]m, Rhod-2 AM) calcium transients in HeLa cells after treatment with histamine (100 μM) that were pretreated with or without C-1, C-2, or C-3 (50 μM) for 30 minutes. FIGS. 3C and 3D are graphs showing results of cytosolic ([Ca^2+]e, R-GECO) and mitochondrial ([Ca^2+]m, GCamP6-mt)) calcium transients in HeLa cells after treatment with histamine (100 μM) that were pretreated with or without C-1, C-2, or C-3 (50 μM) for 30 minutes. HeLa cells were co-transfected with R-GECO1 and GCamP6-mt. 48 hours post-transfection. Data are represented as mean±SEM. *p<0.05. n=3-6.

## [Ru2(μ-O)(NH3)8(H2O)2]^+5 [C-1, reference compound]
[1]; digitonin permeabilized HEK293T cells
  MCU mediated mCa2+ uptake: significant reduction in MCU mediated mCa^2+ uptake
[1]; permeabilized HEK293T cells
  transient ΔΨm loss (JC-1): no transient A m loss
[2]
  inhibition of MCU-mediated mCa2+ uptake in intact cells: did not show appreciable inhibition of mCa^2+ uptake
